Experimental data as given in patent publication US11040035B2, “3-oxo-2,6-diphenyl-2,3-dihydropyridazine-4-carboxamides” (BAYER PHARMA AKTIENGESELLSCHAFT, priority 2016, dated 2021).

Experiments:
AHR [1] = target: T1, AHR (Homo sapiens, UniProt P35869); assay: In vitro assay 1: antagonism in human cell line (transactivation assay, kynurenic acid prestimulated); details: Assay 1: AHR-luc Hum Antagonism IC50 [M], 150 μM kynurenic acid, 20 hours, firefly luciferase
T1 sequence (P35869 11-848): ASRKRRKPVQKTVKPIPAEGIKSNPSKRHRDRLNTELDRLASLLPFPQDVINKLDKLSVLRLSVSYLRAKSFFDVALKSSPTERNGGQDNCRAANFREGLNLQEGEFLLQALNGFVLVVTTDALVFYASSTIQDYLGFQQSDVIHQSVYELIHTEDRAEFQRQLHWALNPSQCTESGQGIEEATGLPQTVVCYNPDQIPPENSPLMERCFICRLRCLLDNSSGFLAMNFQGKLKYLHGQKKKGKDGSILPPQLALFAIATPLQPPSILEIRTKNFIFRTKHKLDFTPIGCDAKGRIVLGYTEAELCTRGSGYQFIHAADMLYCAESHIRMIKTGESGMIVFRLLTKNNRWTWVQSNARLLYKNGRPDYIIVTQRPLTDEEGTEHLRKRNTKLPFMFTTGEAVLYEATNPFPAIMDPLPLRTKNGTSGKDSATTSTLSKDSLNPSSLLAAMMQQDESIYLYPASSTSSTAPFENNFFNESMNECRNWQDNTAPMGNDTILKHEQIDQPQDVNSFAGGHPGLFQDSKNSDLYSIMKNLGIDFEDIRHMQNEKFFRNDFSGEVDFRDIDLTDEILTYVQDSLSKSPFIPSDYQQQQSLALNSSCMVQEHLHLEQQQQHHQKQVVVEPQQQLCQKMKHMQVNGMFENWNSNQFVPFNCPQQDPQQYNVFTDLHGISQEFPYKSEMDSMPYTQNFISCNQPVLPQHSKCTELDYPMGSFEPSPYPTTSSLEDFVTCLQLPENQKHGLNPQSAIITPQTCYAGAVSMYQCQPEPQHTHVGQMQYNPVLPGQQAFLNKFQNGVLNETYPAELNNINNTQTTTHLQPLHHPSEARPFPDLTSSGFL

AHR [2] = target: T1, AHR; assay: In vitro assay 2: agonism in human cell line (transactivation assay); details: Assay 2: AHR-luc Hum Agonism IC50 [M], no kynurenic acid, 20 hours, firefly luciferase

IC50 (AHR [1]) [M]	IC50 (AHR [2]) [M]	SMILES
2.77e-07	> 2e-05	O=C(NCC(O)C1CC1)c1cc(-c2ccc(Cl)cc2)nn(-c2cccc(F)c2)c1=O (racemic) [Example 190, 6-(4-Chlorophenyl)-N-[(2RS)-2-cyclopropyl-2-hydroxyethyl]-2-(3-fluorophenyl)-3-oxo-2,3-dihydropyridazine-4-carboxamide]
2.52e-08	> 2e-05	O=C(NC(CO)C1CC1)c1cc(-c2ccc(Cl)cc2)nn(-c2cccc(F)c2)c1=O (racemic) [Example 193, 6-(4-Chlorophenyl)-N-[(1RS)-1-cyclopropyl-2-hydroxyethyl]-2-(3-fluorophenyl)-3-oxo-2,3-dihydropyridazine-4-carboxamide]
7.5e-08	> 2e-05	CC(CO)CNC(=O)c1cc(-c2ccc(Cl)cc2)nn(-c2cccc(F)c2)c1=O (racemic) [Example 200, 6-(4-Chlorophenyl)-2-(3-fluorophenyl)-N-[(2RS)-3-hydroxy-2-methylpropyl]-3-oxo-2,3-dihydropyridazine-4-carboxamide]
2.13e-07	> 2e-05	CC(O)CCNC(=O)c1cc(-c2ccc(Cl)cc2)nn(-c2cccc(F)c2)c1=O (racemic) [Example 203, 6-(4-Chlorophenyl)-2-(3-fluorophenyl)-N-[(3RS)-3-hydroxybutyl]-3-oxo-2,3-dihydropyridazine-4-carboxamide]
6.25e-08	> 2e-05	CC(CCO)NC(=O)c1cc(-c2ccc(Cl)cc2)nn(-c2cccc(F)c2)c1=O (racemic) [Example 206, 6-(4-Chlorophenyl)-2-(3-fluorophenyl)-N-[(2RS)-4-hydroxybutan-2-yl]-3-oxo-2,3-dihydropyridazine-4-carboxamide]
1.16e-07	> 2e-05	CC(NC(=O)c1cc(-c2ccc(Cl)cc2)nn(-c2cccc(F)c2)c1=O)C(O)C(F)(F)F (racemic) [Example 216, 6-(4-Chlorophenyl)-2-(3-fluorophenyl)-3-oxo-N-[(2RS,3RS)-4,4,4-trifluoro-3-hydroxybutan-2-yl]-2,3-dihydropyridazine-4-carboxamide and 6-(4-Chlorophenyl)-2-(3-fluorophenyl)-3-oxo-N-[(2RS,3SR)-4,4,4-trifluoro-3-hydroxybutan-2-yl]-2,3-dihydropyridazine-4-carboxamide]
7.64e-08	> 2e-05	O=C(NCC(O)C(F)F)c1cc(-c2ccc(Cl)cc2)nn(-c2cccc(F)c2)c1=O (racemic) [Example 221, 6-(4-Chlorophenyl)-N-[(2RS)-3,3-difluoro-2-hydroxypropyl]-2-(3-fluorophenyl)-3-oxo-2,3-dihydropyridazine-4-carboxamide]
2.79e-07	> 2e-05	O=C(NC(CO)CCO)c1cc(-c2ccc(Cl)cc2)nn(-c2cccc(F)c2)c1=O (racemic) [Example 224, 6-(4-Chlorophenyl)-N-[(2RS)-1,4-dihydroxybutan-2-yl]-2-(3-fluorophenyl)-3-oxo-2,3-dihydropyridazine-4-carboxamide]
3.57e-07	> 2e-05	COCCC(CO)NC(=O)c1cc(-c2ccc(Cl)cc2)nn(-c2cccc(F)c2)c1=O (racemic) [Example 227, 6-(4-Chlorophenyl)-2-(3-fluorophenyl)-N-[(2RS)-1-hydroxy-4-methoxybutan-2-yl]-3-oxo-2,3-dihydropyridazine-4-carboxamide]
1.37e-07	> 2e-05	O=C(NC(CO)C1CCCO1)c1cc(-c2ccc(Cl)cc2)nn(-c2cccc(F)c2)c1=O (racemic) [Example 230, 3,6-Anhydro-2-({[6-(4-chlorophenyl)-2-(3-fluorophenyl)-3-oxo-2,3-dihydropyridazin-4-yl]carbonyl}amino)-2,4,5-trideoxy-DL-erythro-hexitol and 1,4-anhydro-5-({[6-(4-chlorophenyl)-2-(3-fluorophenyl)-3-oxo-2,3-dihydropyridazin-4-yl]carbonyl}amino)-2,3,5-trideoxy-DL-threo-hexitol]
1.19e-07	> 2e-05	O=C(NCC(O)C1CCCC1)c1cc(-c2ccc(Cl)cc2)nn(-c2cccc(F)c2)c1=O (racemic) [Example 232, 6-(4-Chlorophenyl)-N-[(2RS)-2-cyclopentyl-2-hydroxyethyl]-2-(3-fluorophenyl)-3-oxo-2,3-dihydropyridazine-4-carboxamide]
1.72e-07	> 2e-05	CCC(CC)C(O)CNC(=O)c1cc(-c2ccc(Cl)cc2)nn(-c2cccc(F)c2)c1=O (racemic) [Example 233, 6-(4-Chlorophenyl)-N-[(2RS)-3-ethyl-2-hydroxypentyl]-2-(3-fluorophenyl)-3-oxo-2,3-dihydropyridazine-4-carboxamide]
3e-06	> 2e-05	CN(C)CC(O)CNC(=O)c1cc(-c2ccc(Cl)cc2)nn(-c2cccc(F)c2)c1=O (racemic) [Example 235, 6-(4-Chlorophenyl)-N-[(2RS)-3-(dimethylamino)-2-hydroxypropyl]-2-(3-fluorophenyl)-3-oxo-2,3-dihydropyridazine-4-carboxamide]
8.23e-08	> 2e-05	Cc1ccc(-c2cc(C(=O)NC(CO)C3CC3)c(=O)n(-c3cccc(F)c3)n2)cc1 (racemic) [Example 236, N-[(1RS)-1-Cyclopropyl-2-hydroxyethyl]-2-(3-fluorophenyl)-6-(4-methylphenyl)-3-oxo-2,3-dihydropyridazine-4-carboxamide]
> 2e-05	1.16e-07	CC(C)C(O)CNC(=O)c1cc(-c2ccc(C(F)(F)F)cc2)nn(-c2cccc(F)c2)c1=O (racemic) [Example 241, 2-(3-Fluorophenyl)-N-[(2RS)-2-hydroxy-3-methylbutyl]-3-oxo-6-[4-(trifluoromethyl)phenyl]-2,3-dihydropyridazine-4-carboxamide]
> 2e-05	1.18e-05	O=C(NCC(O)C(F)(F)F)c1cc(-c2ccc(C(F)(F)F)cc2)nn(-c2cccc(F)c2)c1=O (racemic) [Example 242, 2-(3-Fluorophenyl)-3-oxo-N-[(2RS)-3,3,3-trifluoro-2-hydroxypropyl]-6-[4-(trifluoromethyl)phenyl]-2,3-dihydropyridazine-4-carboxamide]
3.82e-08	> 2e-05	COCCC(CO)NC(=O)c1cc(-c2ccc(C(F)(F)F)cc2)nn(-c2cccc(F)c2)c1=O (racemic) [Example 259, 2-(3-Fluorophenyl)-N-[(2RS)-1-hydroxy-4-methoxybutan-2-yl]-3-oxo-6-[4-(trifluoromethyl)phenyl]-2,3-dihydropyridazine-4-carboxamide]
2.26e-08	> 2e-05	O=C(NCC(O)C(F)F)c1cc(-c2ccc(C(F)(F)F)cc2)nn(-c2cccc(F)c2)c1=O (racemic) [Example 261, N-[(2RS)-3,3-Difluoro-2-hydroxypropyl]-2-(3-fluorophenyl)-3-oxo-6-[4-(trifluoromethyl)phenyl]-2,3-dihydropyridazine-4-carboxamide]
1.14e-07	> 2e-05	CC(C)(O)C(O)CNC(=O)c1cc(-c2ccc(Cl)cc2)nn(-c2cccc(F)c2)c1=O (racemic) [Example 322, 6-(4-chlorophenyl)-N-[(2RS)-2,3-dihydroxy-3-methylbutyl]-2-(3-fluorophenyl)-3-oxo-2,3-dihydropyridazine-4-carboxamide]
1.34e-07	> 2e-05	O=C(NC(CO)Cc1ccccn1)c1cc(-c2ccc(Cl)cc2)nn(-c2cccc(F)c2)c1=O (racemic) [Example 333, 6-(4-chlorophenyl)-2-(3-fluorophenyl)-N-[(2RS)-1-hydroxy-3-(pyridin-2-yl)propan-2-yl]-3-oxo-2,3-dihydropyridazine-4-carboxamide]
1.09e-07	> 2e-05	O=C(NC(CO)Cc1ccncc1)c1cc(-c2ccc(Cl)cc2)nn(-c2cccc(F)c2)c1=O (racemic) [Example 334, 6-(4-chlorophenyl)-2-(3-fluorophenyl)-N-[(2RS)-1-hydroxy-3-(pyridin-4-yl)propan-2-yl]-3-oxo-2,3-dihydropyridazine-4-carboxamide]
7.32e-08	> 2e-05	O=C(NC(CO)Cc1cccnc1)c1cc(-c2ccc(Cl)cc2)nn(-c2cccc(F)c2)c1=O (racemic) [Example 338, 6-(4-chlorophenyl)-2-(3-fluorophenyl)-N-[(2RS)-1-hydroxy-3-(pyridin-3-yl)propan-2-yl]-3-oxo-2,3-dihydropyridazine-4-carboxamide]
2.26e-08	> 2e-05	O=C(NC(CCO)C(F)(F)F)c1cc(-c2ccc(Cl)cc2)nn(-c2cccc(F)c2)c1=O (racemic) [Example 340, 6-(4-chlorophenyl)-2-(3-fluorophenyl)-3-oxo-N-[(2RS)-1,1,1-trifluoro-4-hydroxybutan-2-yl]-2,3-dihydropyridazine-4-carboxamide]
